Where a name gives a salt, the structure may show the parent alone. Read-outs that look alike come from different tables or passages of the source.
What was measured:
[1] = tested on: M1 central muscarinic cholinergic receptors; test: Antagonism to rotatory behaviour induced by intrastriatal injection of pirenzepine in the mouse; format: in vivo, mouse (female, Swiss, CD 1); details: for change in vivo at 3 mg/kg: Mus musculus, po, read-out: % inhibition of pirenzepine-induced rotations
Protocol: Intrastriatal injection of PZ into the mouse induces rotatory behaviour. Antagonism to this behaviour by the products according to the invention was studied.
The products according to the invention were administered in doses of 0.3 or 3 mg/kg orally after being solubilized in distilled water or suspended in a 5% solution of gum arabic. The controls were given pure solvent under the same conditions.
The animals used were female mice (Swiss, CD 1, Charles River, France), body weight between 25 and 30 grams.
Pirenzepine was dissolved in a phosphate buffer, the pH of the solution being 6.
The products under study or solvents thereof were orally administered, using a probang, in a volume of 0.4 ml per 20 g body weight.
The number of contralateral rotations (in the opposite direction to the side of the injection) was counted for three 2-minute periods after injection of pirenzepine (minutes 2-4, 8-10 and 13-15) and was then totalled for each animal. Each treatment comprised three to four doses and ten animals per dose. For each treatment, the total number of rotations and the percentage inhibition relative to the control batch (solvent) was calculated.

[2] = biological target: T1, type M2 muscarinic cholinergic receptor (Cavia porcellus, UniProt H0VRN8); test: Affinity for type M2 muscarinic cholinergic receptor: displacement of tritiated N-methylscopolamine (3H-NMS) on homogenized smooth muscle of guinea-pig ileum; format: binding; details: displacement of 3H-NMS, 30° C., 20 minutes
T1 construct: studies in vitro on homogenized smooth muscle of guinea-pig ileum; from tissue; host or cells: guinea-pig ileum smooth muscle homogenate
T1 sequence (H0VRN8 1-466): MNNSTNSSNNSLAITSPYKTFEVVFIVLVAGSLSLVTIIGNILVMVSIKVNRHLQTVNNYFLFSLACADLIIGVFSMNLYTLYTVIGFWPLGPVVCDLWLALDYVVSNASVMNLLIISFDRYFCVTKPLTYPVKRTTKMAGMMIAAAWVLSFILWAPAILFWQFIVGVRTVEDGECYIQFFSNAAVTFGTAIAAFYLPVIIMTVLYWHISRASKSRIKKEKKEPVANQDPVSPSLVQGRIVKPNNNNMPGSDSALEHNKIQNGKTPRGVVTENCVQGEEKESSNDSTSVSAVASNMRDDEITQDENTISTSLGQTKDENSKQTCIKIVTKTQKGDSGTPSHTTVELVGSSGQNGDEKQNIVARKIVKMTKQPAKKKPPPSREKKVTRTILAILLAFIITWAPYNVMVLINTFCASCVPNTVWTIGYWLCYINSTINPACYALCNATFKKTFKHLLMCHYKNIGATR
Source text: BIOCHEMICAL STUDY IN VITRO
M1 type receptors are concentrated in certain zones of the brain such as the hippocampus, the cerebral cortex, the corpus striatum and the sympathetic ganglia. These connection sites can be selectively tagged with tritiated pirenzepine (^3 H--PZ). Type M2 receptors predominate in the heart and the ileum and can be tagged with tritiated N-methylscopolamine (^3 H--NMS). In order to determine the selectivity of the products according to the invention, with regard to sites M1 and M2, a study was made of their interaction in vitro, with high-affinity tagging with ^3 H--PZ and ^3 H--NMS, on rat hippocampus membranes and smooth muscle from guinea-pig ileum respectively.
b) Search for an affinity for the type M2 muscarinic cholinergic receptor
Interaction with type M2 muscarinic receptors was studies in vitro on homogenized smooth muscle of guinea-pig ileum by measuring the displacement of tritiated N-methyl-scopolamine from its specific tagging sites. 50 μl portions of homogenized smooth muscle form guinea-pig ileum (0.625% w/v) in 20 mM of HEPES buffer: 2-((2-hydroxy 4-ethyl) piperazin-1-yl) ethanesulphonic acid containing NaCl (100 mM) and Mg Cl2 (10 mM) (final pH=7.5) were incubated at 30° C. for 20 minutes int eh presence of ^3 H--NMS (85 Ci/mmol/0.3 nM final) with increasing concentrations of the products under test. The final volume was 1 ml. The reaction was stopped by centrifuging for 5 minutes at 15000 g. Non-specific tagging was determined in the presence of […] of atropine sulphate.
The results are expressed as 50% inhibiting concentrations (IC50), i.e. the concentration (in μM) which induces a 50% displacement of the tritiated ligand fixed to the membrane receptors. The IC50 displacement of ^3 H--PZ represents affinity for the M1 receptor, and
The IC50 displacement of ^3 H--NMS represents affinity for the M2 receptor.

[3] = biological target: T2, type M1 muscarinic cholinergic receptor (Rattus norvegicus, UniProt P08482); test: biochemical; format: binding; details: for ratio R between the IC50 for receptors M1 and M2 (selectivity): values correspond to IC50 3H-NMS (M2) / IC50 3H-PZ (M1)
T2 sequence (P08482 1-460): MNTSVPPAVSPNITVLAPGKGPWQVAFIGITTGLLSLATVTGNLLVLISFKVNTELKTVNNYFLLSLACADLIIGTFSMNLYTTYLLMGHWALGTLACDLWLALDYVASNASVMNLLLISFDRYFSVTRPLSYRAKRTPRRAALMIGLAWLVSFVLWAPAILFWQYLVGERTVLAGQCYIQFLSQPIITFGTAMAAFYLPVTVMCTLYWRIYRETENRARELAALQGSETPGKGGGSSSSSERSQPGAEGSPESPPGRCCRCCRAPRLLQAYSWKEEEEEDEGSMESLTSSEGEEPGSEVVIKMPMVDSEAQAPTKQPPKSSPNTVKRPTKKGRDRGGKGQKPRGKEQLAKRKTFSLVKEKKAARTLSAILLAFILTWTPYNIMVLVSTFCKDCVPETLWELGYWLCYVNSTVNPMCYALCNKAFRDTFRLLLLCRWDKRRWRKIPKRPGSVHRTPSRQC
Protocol: a) Search for an affinity for the type M1 muscarinic cholinergic receptor
The interaction of molecules with type M1 muscarinic receptors was studied in vitro on homogenized rat hippocampus, by studying the displacement of tritiated pirenzepine form its specific tagging sites. 10 μl portions of homogenized rat hippocampus (5% w/v) in an Na2 HPO4 buffer (50 mM, pH 7.40) were incubated at 4° C. for 2 hours in the presence of ^3 H--Pz (76 Ci/mmol/l nM final), with increasing concentrations of the product under study. The final volume was 2 ml. The reaction was stopped by centrifuging for 10 minutes at 50 000 g. After decantation and washing of the bottoms, the tagged radioactivity was counted by liquid scintillation. Non-specific tagging was determined in the presence of 10 μM of atropine sulphate. The 50 inhibiting concentration (IC50) was determined graphically.

[4] = Acute oral toxicity in mice; parameters: species or system Swiss, CD 1); details: mouse, in vivo, female mice, 24 hours after administration, read-out: 50% lethal dose (DL50)
Protocol: The acute toxicity was determined for one product according to the invention: SR 45341 A. The product was orally administered in increasing doses to a batch of 10 female mice (Swiss, CD 1, Charles River, France), body weight 20 g.
The death rate caused by the product under study was noted during the 24 hours after administration of the product. The 50% lethal dose (DL50) was determined, i.e. the dose which killed 50% of the animals.

[5] = 3 mg/kg p.o., 4 hours before pirenzepine 1 μg intrastriatal, *p<0.05, **p<0.01 Student's test
[6] = displacement of 3H-PZ, rat hippocampus homogenate, 4° C., 2 hours, read-out: IC50 3H-PZ (M1)

SMILES	change in vivo at 3 mg/kg [1, 5] [%]	IC50 [2] [µM]	IC50 [3, 6] [µM]	ratio R between the IC50 for receptors M1 and M2 (selectivity) [3]	further results
c1ccc(-c2nnc(NCCN3CCOCC3)s2)cc1 [A, reference compound]	-8				
FC(F)(F)c1cccc(-c2nnc(NCCN3CCOCC3)s2)c1 [B, reference compound]					% inhibition of pirenzepine-induced rotations ([1]; 0,3 mg/kg p.o., 4 hours before pirenzepine 1 μg intrastriatal, *p<0.05, **p<0.01 Student's test): Inactive; % inhibition of pirenzepine-induced rotations [1, 5]: Inactive
CN(C)CCNc1nnc(-c2ccccc2)s1 [C, reference compound]	-12				
CN(C)CCCNc1nnc(-c2ccccc2)s1 [SR 44824 A]	-27	> 100	3	> 30	
CNC1CCN(c2nnc(-c3ccccc3)s2)CC1 [SR 44825 A, 2-(4-methylaminopiperidino)-5-phenyl-1,3,4-thiadiazole dihydrochloride]		80			
CN1CCC(N(C)c2nnc(-c3ccccc3)s2)CC1 [SR 44828 A, Dihydrochloride and hydrate of 2-[N-methyl N-(1-methyl 4-piperidyl)amino-5-phenyl-1,3,4-thiadiazole]					change in vivo at 3 mg/kg ([1]; 4 h): -26%; IC50 [3]: 9 µM
CCN(CC)CCCCNc1nnc(-c2ccccc2)s1 [SR 45339 A, Dihydrochloride of 2-(4-diethylaminobutylamino)-5-phenyl-1,3,4-thiadiazole]	-77	34	5	7	
Cc1cc(C)c(-c2nnc(NCCCN(C)C)s2)c(C)c1Br [SR 45340 A]	-95	27	3.5	6	
Cc1cc(C)c(-c2nnc(NCCCN(C)C)s2)c(C)c1.Cl.Cl [SR 45341 A, 2-(3-dimethylaminopropylamino)-5-(2,4,6-trimethylphenyl)-1,3,4 thiadiazole dihydrochloride]	-74	72	0.45	160	LD50 at 24 h [4]: > 300 mg/kg
CCN(CC)CCCNc1nnc(-c2c(C)cc(C)cc2C)s1 [SR 45352 A]	-32	30	5.5	5	
Cc1cc(C)c(-c2nnc(NCc3cccnc3)s2)c(C)c1 [SR 45417 A]	-43				
CNCCCNc1nnc(-c2c(C)cc(C)cc2C)s1.Cl.Cl [SR 45418 A, 2-(3-methylaminopropylamino) 5-(2,4,6-trimethylphenyl) 1,3,4-thiadiazole dihydrochloride]	-77	> 100	20	> 5	
CN(C)CCCNc1nnc(-c2ccc(F)cc2)s1 [SR 45421 A]	-38				
CN(C)CCCNc1nnc(-c2ccc(Cl)cc2Cl)s1 [SR 45422 A]	-50	26	0.7	37	
Fc1ccc(-c2nnc(NCc3cccnc3)s2)cc1 [SR 45447 A]	-62				
Clc1ccc(-c2nnc(NCCCN3CCCC3)s2)c(Cl)c1 [SR 45458 A]	-28	12	0.8	15	

SMILES	change in vivo at 3 mg/kg [1, 5] [%]	IC50 [2] [µM]	IC50 [3, 6] [µM]	ratio R between the IC50 for receptors M1 and M2 (selectivity) [3]	further results
Clc1ccc(-c2nnc(NCc3cccnc3)s2)c(Cl)c1 [SR 45459 A]	-29				
CNCCCNc1nnc(-c2ccc(Cl)cc2Cl)s1 [SR 45479 A]		70	14	5	
CN(C)CCCNc1nnc(-c2ccc(Cl)cc2)s1 [SR 45480 A]	-54	50	4.5	11	
CCN(CC)CCCNc1nnc(-c2ccc(Cl)cc2Cl)s1 [SR 45481 A]	-67				
Fc1ccc(-c2nnc(NCc3ccncc3)s2)cc1 [SR 45482 A]	-53				
CCN(CCCN(C)C)c1nnc(-c2ccc(F)cc2)s1 [SR 45483 A]	-20	20	2.4	8	
Clc1ccc(-c2nnc(NCc3cccnc3)s2)cc1 [SR 45488 A]	-49				
CN1CCN(CCCNc2nnc(-c3ccc(Cl)cc3)s2)CC1 [SR 45489 A]	-29	26	3.6	7	
CN1CCCC1CCNc1nnc(-c2ccc(Cl)cc2Cl)s1 (centres unmarked) [SR 45490 A]	-73				
CN1CCCC(CNc2nnc(-c3ccc(Cl)cc3)s2)C1 (centres unmarked) [SR 45491 A, 2-[(N-methyl 3-piperidyl)methylamino]-5-(4-chlorophenyl)-1,3,4-thiadiazoledihydrochloride]	-57				
Clc1ccc(-c2nnc(NCCc3ccccn3)s2)c(Cl)c1 [SR 45492 A]	-50				
Clc1ccc(-c2nnc(NCCCn3ccnc3)s2)c(Cl)c1 [SR 45504 A]		40	3	13	
Clc1ccc(-c2nnc(NCCCN3CCOCC3)s2)cc1 [SR 45520 A]	-75	80	4.5	17	
CN(Cc1cccnc1)c1nnc(-c2ccc(F)cc2)s1 [SR 45530 A]	-41				
Clc1ccc(-c2nnc(NCCCn3ccnc3)s2)c(Cl)c1 [SR - A]	-60				
